Measured values reported in patent US5811444A, “Compositions for reducing abnormal stimulation of endothelin receptors and novel compounds” (Roussel Uclaf, priority 1994, dated 1998).

What was measured:
A receptor of endothelin = target: T1, A receptor of endothelin (Rattus norvegicus, UniProt P26684); assay: Study of the activity on the A receptor of endothelin (displacement of 125I Endothelin, rat heart ventricle membranes); assay type: binding; conditions: rat heart (ventricles) membranes, 25 °C, 60 minutes, pH 7.4, read-out: A receptor of endothelin IC/50
T1 construct: A membrane preparation is produced from the heart (ventricles) of a rat; from tissue; host or cells: rat heart ventricles, membranes
T1 sequence (P26684 21-426): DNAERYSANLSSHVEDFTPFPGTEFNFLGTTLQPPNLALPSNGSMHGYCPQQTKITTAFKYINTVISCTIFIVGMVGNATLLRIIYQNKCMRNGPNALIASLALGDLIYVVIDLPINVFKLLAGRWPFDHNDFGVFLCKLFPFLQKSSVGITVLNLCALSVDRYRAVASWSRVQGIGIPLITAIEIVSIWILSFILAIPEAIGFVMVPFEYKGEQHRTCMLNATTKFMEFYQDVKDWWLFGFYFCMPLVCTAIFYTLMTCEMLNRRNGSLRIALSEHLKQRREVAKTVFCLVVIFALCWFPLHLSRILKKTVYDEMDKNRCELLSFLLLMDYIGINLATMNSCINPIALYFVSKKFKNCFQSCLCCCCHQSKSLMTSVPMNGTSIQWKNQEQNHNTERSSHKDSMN
Description: STUDY OF THE ACTIVITY ON THE A RECEPTOR OF ENDOTHELIN
A membrane preparation is produced from the heart (ventricles) of a rat. The tissue is ground up in a POLYTRON in a 50 mM Tris buffer pH=7.4.
After 30 minutes at 25° C. (W.B.) the homogenate is centrifuged at 30000 g for 15 minutes (2 centrifugations with intermediate take up in the Tris buffer pH. 7.4).
(§1) The pellets are resuspended in an incubation buffer (25 mM Tris, 5 microg/ml pepstatin A, 3 microg/ml aprotinin, 0.1 mM PMSF, 3 mM EDTA, 1 mM EGTA pH 7.4).
(§2) 2 ml aliquots are distributed into hemolysis tubes and ^125 I Endothelin (approximately 50000 dpm/tube) and the product to be studied are added. (The product is first tested at 3×10^-5 M three times). When the tested product displaces more than 50% of the radioactivity specifically bound to the receptor, it is tested again according to a range of 7 concentrations so as to determine the concentration which inhibits the radioactivity specifically bound to the receptor by 50%. In this way the 50% inhibitory concentration is determined.
(§3) The non-specific bond is determined by the addition of 10^-6 M endothelin (three times). After incubation at 25° C. for 60 minutes, putting back in the water bath at 0° C., for 5 minutes, filtering under reduced pressure, rinsing with Tris buffer 7.4, the radioactivity is counted in the presence of scintillating Triton. […]

B receptor of endothelin = target: T2, B receptor of endothelin (Rattus norvegicus, UniProt P21451); assay: Study of the activity on the B receptor of endothelin (displacement of 125I Endothelin, rat posterior cortex plus cerebellum membranes); assay type: binding; conditions: 25 °C, 60 minutes, pH 7.4, read-out: B receptor of endothelin IC/50
T2 construct: A membrane preparation is produced from the posterior cortex plus cerebellum of a rat; from tissue; host or cells: rat posterior cortex plus cerebellum, membranes
T2 sequence (P21451 27-442): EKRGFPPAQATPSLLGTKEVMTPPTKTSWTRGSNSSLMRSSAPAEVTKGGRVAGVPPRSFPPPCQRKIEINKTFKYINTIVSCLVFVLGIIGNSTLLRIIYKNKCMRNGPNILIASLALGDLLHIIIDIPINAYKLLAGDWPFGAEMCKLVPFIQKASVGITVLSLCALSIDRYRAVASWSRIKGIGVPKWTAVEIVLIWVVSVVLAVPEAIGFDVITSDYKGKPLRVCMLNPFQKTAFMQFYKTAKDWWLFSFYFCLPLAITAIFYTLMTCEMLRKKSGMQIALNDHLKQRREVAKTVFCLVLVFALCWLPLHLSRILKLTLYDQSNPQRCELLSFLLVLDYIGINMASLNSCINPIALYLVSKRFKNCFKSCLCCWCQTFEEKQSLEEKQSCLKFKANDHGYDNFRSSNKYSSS
Description: STUDY OF THE ACTIVITY ON THE B RECEPTOR OF ENDOTHELIN
A membrane preparation is produced from the posterior cortex plus cerebellum of a rat. The tissue is ground up in a POLYTRON in a 50 mM Tris buffer pH=7.4.
After 30 minutes at 25° C. (W.B.) the homogenate is centrifuged at 30000 g for 15 minutes (2 centrifugations with intermediate take-up in the Tris buffer pH. 7.4).
as §1, §2, §3

IC50 (A receptor of endothelin) [µM]	IC50 (B receptor of endothelin) [µM]	SMILES
0.11	0.35	COc1ccc(Sc2nc(C)n(Cc3cc4c(cc3Cl)OCO4)c2C(=O)O)cc1 [Example 21, 1-((6-chloro-1,3-benzodioxol-5-yl)methyl)-4-((4-methoxyphenyl)thio)-2-methyl-1H-imidazole-5-carboxylic acid]
0.091	0.25	CCCCc1nc(S(=O)(=O)c2ccc(OC)cc2)c(C(=O)O)n1Cc1cc2c(cc1Cl)OCO2 [Example 10, 2-butyl-1-((6-chloro-1,3-benzodioxol-5-yl)methyl)-4-((4-methoxyphenyl)sulphonyl)-1H-imidazole-5-carboxylic acid]
